Assay results reported in patent publication US10292597B2, “Assessing endothelial function and providing calibrated UFMD data using a blood pressure cuff” (The Regents of the University of California, priority 2015, dated 2019).
“Also recorded” adds a separate entry of the source.

How the values were obtained:
NO synthase = assay: Single pulse waveforms from the pressure cuff after endothelial stimulation, with NO synthase inhibitor; type: in vivo, human; details: cuff inflated to 70 mm Hg; FIG. 3
Source text: Both the amplitude and slope of the rising edge of the pulse increase markedly after endothelial stimulation.
In an artery with intact endothelial function, both pulse height (maximal cross-sectional arterial area) and compliance (maximum slope of the rising edge) increase markedly over baseline. […] FIG. 4 illustrates how a five minute cuff occlusion and the ensuring reactive hyperemia lead to major increases in area change per pulse and the maximum derivative of the area per pulse. Both metrics return to baseline levels after 20 minutes. FIG. 5 confirms the repeatability of the protocol by illustrating the effects of a series of two cuff occlusion periods. We see from FIG. 6 that only a small slow drift in the measured quantities occurs when no reactive hyperemic stimulus is applied.
A stimulus is then applied to the subject. Any of a number of stimuli expected to alter endothelial function are contemplated. Such stimuli include, for example, occlusion of blood flow, and/or application of one or more drugs to the subject. Illustrative drugs include, for example, drugs that act as NO agonists (e.g. acetylcholine), β2-adrenergic agonists such as albuterol, acoustic/mechanical tissue vibration, transcutaneous low frequency ultrasound (see, e.g., Iida et al. (2006) J. Amer. Coll. Cardiol., 48(3): 532-537), and the like. […]

brachial artery = assay: Cuff-based measurement of pulse amplitude (proportional to arterial area) before and after a stimulus; type: in vivo, human
Experimental: Three individuals in the age-range of 28-38 were examined. All subjects had Framingham risk scores of 1% or less, and had no history of cardiovascular disease. Each individual was assessed at least three times before and after RH induced by five minutes of suprasystolic cuff occlusion. At least one additional measurement was made using the same protocol, except without cuff inflation. Sensitivity to a 0.4 mg dose of sublingual NG was assessed three times in two individuals.
Sensitivity to a 0.4 mg dose of sublingual NG was assessed three times in two individuals. In the analysis that follows, all of the datasets are pooled by stimulus. This addresses the question: Can the method measure changes in arterial tone due to vasorelaxatory stimuli and with what sensitivity?
A single quantity relating to the recorded pressure data, the pulse amplitude, was studied and it was posited that this is proportional to the arterial area. During the post stimulus interval, pressure data from the cuff were recorded approximately every 80 seconds, for a period of 30 seconds. During each recording interval, the cuff was inflated to 70 mm Hg, which was always below the measured diastolic pressure of the subject. To quantify the observed response, the mean of the pulse quantity (in this case, amplitude) during the response interval was divided by the mean value of the same quantity during the baseline interval. FIG. 10 illustrates the results.
In Table 2, the maximum response for each stimulus is calculated and the statistical significance of the change relative to the NS case (one-tail Student's t test) is evaluated. Values of p<0:05 were considered significant.
(iii) The cuff is inflated to a value Pm, which must be less than the mean arterial pressure, for a period Tm=30 s. During this time interval, we measure and record the pressure fluctuations in the cuff.
v) The stimulus is applied. This is either 1-5 min of cuff occlusion to suprasystolic pressure Ps (for studies of endothelial function) or a dose of sublingual NG (for studies of endothelium-independent vasodilation).
(vi) After Tp=45 s have elapsed following cuff release or drug administration, a series of up to Nr=10 repeat measurement intervals ensue. In each interval, the cuff is inflated to Pm for Tm seconds, after which it is deflated for Tw seconds. This large number of repeat measurements (Nr) is required only when one wishes to record the return of the vessel toward baseline.
(viii) Each post-stimulus response is then compared to the average baseline response, to yield the area-based cFMD metric (Equation 2) defined above. […]
(iv) The maximum of the cFMD metric in Equation 2, analogous to that used for uFMD, expressed directly as a function of the measurement data, is calculated as […]

arterial smooth muscle = details: cited from earlier work

Row | Structure (SMILES) | effect on increase of pulse amplitude and rising-edge slope after endothelial stimulation (NO synthase) | change in metric, NG vs. NS (brachial artery; 400 μg sublingual vs zero dose (no stimulus)) [%] | cDmax % (brachial artery; 400 μg sublingual, Table 5) [%] | Mean ± SEM of maximum response over all data sets (dilation response) (brachial artery; 400 μg sublingual, pooled data sets, Table 5) | Mean ± SEM of maximum Response over all data sets (amplitude response, response/baseline) (brachial artery; 0.4 mg sublingual, cuff inflated to 70 mm Hg, pooled data sets, Table 2) | smooth muscle dilation elicited (arterial smooth muscle; 400 μg sublingual dose, Feldman et al. (1979), Adams et al. (1998)) | typical dilation due to nitroglycerin (arterial smooth muscle; observed at Ptm=PS)
1 | COC(=O)[C@@H](N)CCCNC(=N)N[N+](=O)[O-] [L-NAME] | greatly attenuates this response; also recorded: greatly attenuated | – | – | – | – | – | –
2 | O=[N+]([O-])OCC(CO[N+](=O)[O-])O[N+](=O)[O-] [NG, Nitroglycerin] | – | 70 | 70 | 1.70 ± 0.036 | 1.70 ± 0.036 | maximal smooth muscle dilation | ≈ 20%
